Ten compounds from ChEMBL document CHEMBL1201862, “PubChem BioAssay data set” (2004) can be followed below.

Holding throughout (experiment): NCI-60 cell line screen, 48 h
The subject of assay [1] is PC-3.
Assay [2] deals with MOLT-4.
Assay [3] deals with K562.
Assay [4] relates to DU-145.
Assay [5] deals with MDA-MB-231.
Assay [6] has as its system SF-268.
Assay [7] has as its system A498.
In assay [8] the test system is SK-OV-3.
Assay [9] has as its system HOP-92.
Assay [10] deals with SK-MEL-2.
The subject of assay [11] is RXF 393.
The subject of assay [12] is HT-29.
Assay [13] concerns KM12.
The subject of assay [14] is SK-MEL-28.
In assay [15] the test system is UO-31.
In assay [16] the test system is BT-549.
The test system of assay [17] is OVCAR-5.
Assay [18] concerns OVCAR-4.
Assay [19] deals with T47D.
Assay [20] concerns A549.

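Values below derive from 48-hour exposures of cells grown in 96-well plates, with endpoints linearly interpolated between the two concentrations bracketing the appropriate inhibition level. The concentration for 50% growth inhibition is given as GI50.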 Calls of active or inactive are those of the source. No stated cut-off is given here; in the data, active = GI50 up to about 1.1 µM and inactive = higher. A value given as a limit tells only on which side of the number the result lay.

`Cc1cc2c3ccccc3n(C)c2c2c1C(=O)C=CC2=O`: the GI50 in assay [1] was 9.91 µM (inactive); in [2], 6.76 µM (inactive); in assay [3], 5.33 µM (inactive); in assay [4] it was 21.7 µM (inactive); in assay [5], 15.3 µM (inactive); in assay [6], 17.2 µM (inactive). Further, the GI50 in assay [7] is 17.8 µM (inactive); in [8], 21.1 µM (inactive); in assay [9], 12.1 µM (inactive); in assay [10], 18.1 µM (inactive); in assay [11] it was 6.64 µM (inactive); in assay [12], 9.62 µM (inactive). Besides, the GI50 in assay [13] is 17 µM (inactive); in assay [14], 21.5 µM (inactive); in assay [15] it was 21.8 µM (inactive); in assay [16], 13.9 µM (inactive); in assay [17], 21.1 µM (inactive); in [18], 7.29 µM (inactive). In addition, the GI50 in [19] was 3.39 µM (inactive); in assay [20], 40.4 µM (inactive).

With `CNc1ncnc2c1cnn2CCCCO`, the GI50 in assay [1], in [2], in assay [3], in [4], in assay [5] and in assay [6] was > 100 µM (inactive) in each case. Besides, the GI50 in [7], in assay [8], in [9], in [10], in assay [11] and in assay [12] was > 100 µM (inactive) in each case. The GI50 in assay [14], in assay [15], in assay [16], in assay [17], in [18] and in assay [19] was > 100 µM (inactive) each time. For the same compound, the GI50 in [20] is > 100 µM (inactive).

Regarding `CC(=O)OC1CC2(C)C(=CC1C1SCCS1)CCC1C2CCC2(C)C(OC(C)=O)CCC12` (stereo unspecified), the GI50 was > 100 µM (inactive) in assay [1]; > 100 µM (inactive) in assay [2]; > 100 µM (inactive) in assay [3]; > 100 µM (inactive) in assay [4]; 34.9 µM (inactive) in [5]; 26.5 µM (inactive) in [6]. For the same compound, the GI50 in assay [7] is 70 µM (inactive); in [8], 27.9 µM (inactive); in assay [9], 66.4 µM (inactive); in assay [10], 45.4 µM (inactive); in assay [11], 19.3 µM (inactive); in assay [12], > 100 µM (inactive). The GI50 in assay [13], in assay [14], in assay [15], in [16], in assay [17] and in assay [18] was > 100 µM (inactive) in each case. The GI50 in [19] and in assay [20] was > 100 µM (inactive) throughout.

In the case of `CCOC(=O)[C@@H]1CCN2CN(c3ccc(OC)cc3)N=C(c3ccccc3)[C@@]12c1ccccc1`, the GI50 in assay [1] was 25.5 µM (inactive); in assay [2], 26.1 µM (inactive); in [3], 66.8 µM (inactive); in assay [4], 22.6 µM (inactive); in assay [5], 31.6 µM (inactive); in [6], 28.9 µM (inactive). The GI50 in assay [7] is 21.6 µM (inactive); in assay [8], 44 µM (inactive); in assay [9], 12.6 µM (inactive); in assay [10], 18.1 µM (inactive); in assay [11] it was 14.7 µM (inactive); in assay [12] it was 17.1 µM (inactive). Also, the GI50 in [13] is 28.3 µM (inactive); in assay [14], 21.5 µM (inactive); in [15], 17.8 µM (inactive); in assay [16] it was 21.4 µM (inactive); in [17] it was 32.2 µM (inactive); in assay [18], 44 µM (inactive). The GI50 in assay [19] was 19.1 µM (inactive); in assay [20] it was 29.9 µM (inactive).

With `Nc1ccc(Oc2ccc(C34CC5CC6C3CC3CC4C(C5)C6(c4ccc(Oc5ccc(N)cc5)cc4)C3)cc2)cc1`, the GI50 in assay [1] is 8.26 µM (inactive); in assay [2], 7.98 µM (inactive); in assay [3] it was 10.2 µM (inactive); in assay [4], 8.93 µM (inactive); in assay [5] it was 9.08 µM (inactive); in assay [6], 22.6 µM (inactive). For the same compound, the GI50 is 22.2 µM (inactive) in [7]; 22.8 µM (inactive) in assay [8]; 2.9 µM (inactive) in assay [9]; 4.37 µM (inactive) in [10]; 18.6 µM (inactive) in assay [11]; 10.2 µM (inactive) in assay [12]. Also, the GI50 in assay [13] was 19.5 µM (inactive); in [14], 0.714 µM (active); in [15], 8.36 µM (inactive); in [16] it was 34.4 µM (inactive); in assay [17], > 100 µM (inactive); in [18], 11.1 µM (inactive). Moreover, the GI50 in assay [19] was 9.14 µM (inactive); in assay [20] it was 12.6 µM (inactive).

Regarding `C[N+](C)=C/C=C(\Cl)c1ccc2ccccc2c1`, the GI50 in assay [1] was 19.8 µM (inactive); in assay [2] it was 1.54 µM (inactive); in assay [3] it was 5.04 µM (inactive); in [4], 14.9 µM (inactive); in [5], 14.6 µM (inactive); in assay [6], 22.9 µM (inactive). Also, the GI50 is > 63 µM (inactive) in assay [7]; 18 µM (inactive) in assay [8]; 21 µM (inactive) in assay [9]; 25.2 µM (inactive) in assay [10]; 16.5 µM (inactive) in assay [11]; 7.64 µM (inactive) in [12]. Also, the GI50 in assay [13] was 15 µM (inactive); in [14], 3.61 µM (inactive); in [15], 17 µM (inactive); in assay [16], 17.7 µM (inactive); in assay [17], 19.9 µM (inactive); in [18] it was 3.82 µM (inactive). Further, the values for the GI50 in assay [19] and in assay [20] were 12.4 µM (inactive) and > 75.7 µM (inactive), respectively.

As for `COc1ccc(N2C(=O)[C@H]3[C@H]4CC(C(C)(C)C)CC[C@H]4c4c(n(C)c5ccccc45)[C@H]3C2=O)cc1` (stereo partly specified), the GI50 in assay [1] was > 100 µM (inactive); in assay [2], > 100 µM (inactive); in assay [3], > 95.3 µM (inactive); in assay [4] it was > 100 µM (inactive); in assay [5] it was > 100 µM (inactive); in assay [6], > 100 µM (inactive). Further, the GI50 was > 46.5 µM (inactive) in assay [7]; > 100 µM (inactive) in [8]; > 100 µM (inactive) in assay [9]; > 4.65 µM (inactive) in [10]; > 23.7 µM (inactive) in assay [11]; > 100 µM (inactive) in [12]. Moreover, the GI50 in assay [13] is > 10 µM (inactive); in assay [14], > 100 µM (inactive); in assay [15] it was > 100 µM (inactive); in assay [16], > 100 µM (inactive); in [17], > 10 µM (inactive); in [18], > 79.6 µM (inactive). Further, the GI50 in assay [19] and in assay [20] was > 100 µM (inactive) each time.

On to `C[C@@H]1CCC2[C@@H](C)[C@@H](O[C@H]3O[C@@H]4O[C@@]5(C)CCC6[C@H](C)CCC([C@H]3C)[C@]64OO5)O[C@@H]3O[C@@]4(C)CCC1[C@@]23OO4` (stereo partly specified), for which the GI50 is 0.18 µM (active) in [1]; 2.17 µM (inactive) in [2]; 1.04 µM (active) in assay [3]; > 25 µM (inactive) in assay [4]; > 25 µM (inactive) in [5]; > 25 µM (inactive) in assay [6]. The GI50 was > 25 µM (inactive) in assay [7]; > 25 µM (inactive) in assay [8]; 3.63 µM (inactive) in [9]; 16 µM (inactive) in [10]; > 12.6 µM (inactive) in [11]; 1.31 µM (inactive) in assay [12]. The GI50 is 0.865 µM (active) in assay [13]; > 25 µM (inactive) in [14]; 1.71 µM (inactive) in assay [15]; 1.23 µM (inactive) in [16]; > 25 µM (inactive) in assay [17]; 7.62 µM (inactive) in assay [18]. The GI50 was 1.17 µM (inactive) in [19] and 18.6 µM (inactive) in assay [20].

For the compound `Cc1cc(C)n2c(nc3ccccc32)c1C#N`, the GI50 was > 100 µM (inactive) in [1]; 93.8 µM (inactive) in assay [2]; > 100 µM (inactive) in assay [3]; > 100 µM (inactive) in assay [4]; 69.2 µM (inactive) in [5]; > 100 µM (inactive) in assay [7]. The GI50 in [8] is > 100 µM (inactive); in [9], 22.4 µM (inactive); in assay [10] it was > 100 µM (inactive); in assay [11], > 100 µM (inactive); in [12], > 100 µM (inactive); in [14], > 100 µM (inactive). The GI50 in [15] is > 100 µM (inactive); in assay [16], > 100 µM (inactive); in assay [17], > 100 µM (inactive); in assay [18], 10.8 µM (inactive); in [19], > 100 µM (inactive); in [20], > 100 µM (inactive).

In the case of `CSc1ccn(C2CC(F)C(CO)O2)c(=O)n1` (stereo unspecified), the GI50 in [1], in assay [2], in assay [3], in [4], in assay [5] and in assay [6] was > 100 µM (inactive) each time. The GI50 in assay [7], in [8], in assay [9], in [10], in assay [11] and in assay [12] was > 100 µM (inactive) throughout. Moreover, the GI50 in [13], in [15], in assay [16], in [17], in assay [18] and in [19] was > 100 µM (inactive) in each case. The GI50 in [20] is > 100 µM (inactive).
